Assay results as given in paper PMC5986654, “Combined HAT/EZH2 modulation leads to cancer-selective cell death” (Oncotarget, 2018).

Legend:
[1] = molecular target: T1, EZH2 (Homo sapiens, UniProt Q15910); assay: EZH2 methyltransferase in vitro assay; assay type: biochemical
T1 construct: purchased BPS Biosciences
Procedure: EZH2 assays were performed following BPS Biosciences instructions and as previously described.

[2] = tested on: HCT116 colon carcinoma; assay: HCT116 colon carcinoma xenograft, tumor volume; assay type: in vivo, mice; details: 10 mg/Kg i.p., day 19
Procedure: HCT116 cell line was grown in McCoy’s medium, supplemented with 10% inactivated FBS, 2 mM glutamine and standard concentration of antibiotics. 7- to 8-week-old male CD1 nude athymic mice were purchased from Charles River and under pathogen-free conditions in accordance with European Directives no. 2010/63 and with Italian D.L. 26/2014. Mice were injected subcutaneously into the right flank with 4 × 10^6 of HCT116 cells; tumor volume (mm^3) was evaluated three times a week by caliper using the formula Dmax x dmin^^2/2, where ‘d’ and ‘D’ are the shortest and the longest diameters, respectively. For all experiments, mice were randomly divided (n = 7) and intra-peritoneal injected by day five every day with: vehicle sesame oil/DMSO 6%; MC2884 10 mg/Kg in sesame oil/DMSO 6%. Mice were sacrificed after 20 days of drug treatment and tumors explanted for immunohistochemical analyses. For HCT116-DKO colon cancer, 6 × 10^6 cells were injected.

[3] = molecular target: KAT5 (Homo sapiens, UniProt Q92993); assay: HAT in vitro assay, 10-dose IC50, KAT5; assay type: biochemical; details: substrate Histone H2A, 3 μM Acetyl-CoA; read-out: Compound IC50 KAT5
Procedure: For HAT in vitro assay, MC2884 activity was also tested in vitro and IC50 was calculated as indicated in the scheme. […] Reactions were carried out at 3 μM Acetyl-CoA. Empty cells indicate no inhibition or compound activity that could not be fit to an IC50 curve.

[4] = tested on: MePR2B; assay: Cytotoxic effect on mesenchymal progenitor model MePR2B; assay type: cell-based; details: immortalized non-cancer cells
[5] = tested on: U937 cells; assay: U937 leukemia xenograft, human CD45+ cells in bone marrow; assay type: in vivo, mice; details: 1 mg/kg i.p., day 16
Procedure: Xenograft studies using NB4 and U937-AML cells were performed in NOG SCID mice under specific pathogen–free conditions. Cells (0.2 × 10^6 in 100 µL) were injected intravenously (retro orbital vein). Injected mice were randomly assigned to receive intra-peritoneal MC2884 (1 mg/kg) or vehicle for two weeks (8 doses) (10 mice per group). All animal procedures were performed in accordance with protocols approved by the local Committee for Animal Experimentation and with the permission of the Italian Health Ministry (n° 626/2015). At 16 days after injection, mice were sacrificed and the femurs and spleens were collected. Bone marrow (BM) and spleen cells were analyzed by FACS. To avoid non-specific stain, cells were mixed with mouse IgG and incubated with indicated antibodies for 30’. The mixture was depleted of erythrocytes and fixed (BD Pharmingen). […] Tumor growth was monitored by weekly bioluminescence imaging (BLI) acquisitions using an IVIS 3D Imaging System (Caliper Alameda, USA). To quantify bioluminescence, the integrated fluxes of photons (photons per s) within each area of interest were determined using the Living Images Software Package 3.2 (Caliper, Alameda, USA). […] Efficacy of drug treatment was assessed as inhibition of BLI emission comparing those MC2884 treated mice group and vehicle groups.

T1 sequence (Q15910 whole entry): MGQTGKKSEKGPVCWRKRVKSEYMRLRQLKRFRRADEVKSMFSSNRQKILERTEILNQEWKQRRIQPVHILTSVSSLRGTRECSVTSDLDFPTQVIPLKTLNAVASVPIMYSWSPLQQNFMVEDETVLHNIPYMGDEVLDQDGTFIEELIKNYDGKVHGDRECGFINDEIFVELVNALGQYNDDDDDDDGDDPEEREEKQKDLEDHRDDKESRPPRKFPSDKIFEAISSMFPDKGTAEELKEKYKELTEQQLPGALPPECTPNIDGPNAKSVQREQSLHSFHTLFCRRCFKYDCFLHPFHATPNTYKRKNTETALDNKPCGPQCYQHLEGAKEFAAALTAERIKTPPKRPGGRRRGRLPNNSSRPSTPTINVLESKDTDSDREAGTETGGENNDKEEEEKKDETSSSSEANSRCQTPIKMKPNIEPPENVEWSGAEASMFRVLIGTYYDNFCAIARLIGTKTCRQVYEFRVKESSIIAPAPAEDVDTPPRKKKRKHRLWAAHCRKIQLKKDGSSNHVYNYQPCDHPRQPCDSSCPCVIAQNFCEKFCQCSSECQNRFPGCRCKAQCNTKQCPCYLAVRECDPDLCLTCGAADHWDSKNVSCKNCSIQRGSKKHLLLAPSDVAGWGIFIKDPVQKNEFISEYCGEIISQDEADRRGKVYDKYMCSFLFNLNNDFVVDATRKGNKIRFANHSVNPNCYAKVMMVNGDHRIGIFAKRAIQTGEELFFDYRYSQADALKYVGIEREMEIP
T1 sequence (O75530 whole entry partner): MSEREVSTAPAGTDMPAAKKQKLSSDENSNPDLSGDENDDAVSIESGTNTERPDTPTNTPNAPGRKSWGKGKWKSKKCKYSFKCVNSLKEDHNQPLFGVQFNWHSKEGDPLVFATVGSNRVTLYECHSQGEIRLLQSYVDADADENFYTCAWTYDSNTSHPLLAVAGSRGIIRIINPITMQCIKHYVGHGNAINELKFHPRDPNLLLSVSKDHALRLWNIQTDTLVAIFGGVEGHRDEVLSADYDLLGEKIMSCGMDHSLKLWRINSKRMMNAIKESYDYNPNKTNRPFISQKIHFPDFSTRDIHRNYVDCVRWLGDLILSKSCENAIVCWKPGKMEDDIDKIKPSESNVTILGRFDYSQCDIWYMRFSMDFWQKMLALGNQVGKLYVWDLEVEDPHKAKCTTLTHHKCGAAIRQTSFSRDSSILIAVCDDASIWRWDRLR
T1 sequence (Q15022 whole entry partner): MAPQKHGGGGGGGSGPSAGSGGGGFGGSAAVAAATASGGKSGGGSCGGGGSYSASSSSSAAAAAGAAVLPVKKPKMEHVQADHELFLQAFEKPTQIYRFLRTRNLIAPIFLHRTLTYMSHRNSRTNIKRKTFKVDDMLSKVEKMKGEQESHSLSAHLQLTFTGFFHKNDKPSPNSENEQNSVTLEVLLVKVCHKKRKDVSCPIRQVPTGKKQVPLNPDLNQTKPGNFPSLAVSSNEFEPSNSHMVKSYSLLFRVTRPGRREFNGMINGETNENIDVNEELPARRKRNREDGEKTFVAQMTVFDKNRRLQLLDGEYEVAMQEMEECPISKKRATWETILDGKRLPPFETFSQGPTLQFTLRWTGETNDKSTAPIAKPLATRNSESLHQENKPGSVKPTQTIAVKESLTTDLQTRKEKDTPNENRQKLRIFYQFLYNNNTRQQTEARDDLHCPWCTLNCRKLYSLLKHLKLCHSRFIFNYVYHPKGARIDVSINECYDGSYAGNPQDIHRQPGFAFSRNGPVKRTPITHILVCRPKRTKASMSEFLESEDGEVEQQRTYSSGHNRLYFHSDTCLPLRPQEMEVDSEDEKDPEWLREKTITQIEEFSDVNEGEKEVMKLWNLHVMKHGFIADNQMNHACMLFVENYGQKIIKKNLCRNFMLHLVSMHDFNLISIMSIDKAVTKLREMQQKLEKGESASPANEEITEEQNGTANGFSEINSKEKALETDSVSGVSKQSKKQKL
T1 sequence (Q09028 whole entry partner): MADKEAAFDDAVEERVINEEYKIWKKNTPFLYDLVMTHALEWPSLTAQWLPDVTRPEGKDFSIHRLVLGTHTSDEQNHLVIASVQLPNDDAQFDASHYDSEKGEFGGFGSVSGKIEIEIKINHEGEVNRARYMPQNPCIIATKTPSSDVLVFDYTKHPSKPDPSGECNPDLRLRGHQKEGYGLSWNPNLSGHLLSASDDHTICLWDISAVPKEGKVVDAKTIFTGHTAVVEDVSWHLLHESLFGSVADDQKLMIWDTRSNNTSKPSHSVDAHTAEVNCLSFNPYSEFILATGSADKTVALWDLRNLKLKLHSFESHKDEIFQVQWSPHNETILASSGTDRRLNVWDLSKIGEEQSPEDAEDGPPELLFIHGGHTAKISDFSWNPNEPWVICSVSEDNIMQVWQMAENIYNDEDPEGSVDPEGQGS
T1 sequence (Q6ZN18 whole entry partner): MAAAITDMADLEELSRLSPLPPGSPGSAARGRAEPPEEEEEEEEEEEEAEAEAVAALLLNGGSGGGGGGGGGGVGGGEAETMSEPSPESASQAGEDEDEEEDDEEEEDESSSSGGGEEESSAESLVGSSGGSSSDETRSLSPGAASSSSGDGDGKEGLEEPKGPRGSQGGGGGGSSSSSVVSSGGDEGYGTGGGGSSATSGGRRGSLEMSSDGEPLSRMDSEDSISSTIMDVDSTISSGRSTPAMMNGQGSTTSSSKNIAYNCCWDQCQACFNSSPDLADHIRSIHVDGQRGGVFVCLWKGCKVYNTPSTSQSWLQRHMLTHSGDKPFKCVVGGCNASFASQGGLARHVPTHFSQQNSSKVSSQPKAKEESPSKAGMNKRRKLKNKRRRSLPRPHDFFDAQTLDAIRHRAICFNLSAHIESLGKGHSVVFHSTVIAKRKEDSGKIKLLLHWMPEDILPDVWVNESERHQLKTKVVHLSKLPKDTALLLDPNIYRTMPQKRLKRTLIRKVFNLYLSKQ
Chain of KAT5 (Q92993 whole entry): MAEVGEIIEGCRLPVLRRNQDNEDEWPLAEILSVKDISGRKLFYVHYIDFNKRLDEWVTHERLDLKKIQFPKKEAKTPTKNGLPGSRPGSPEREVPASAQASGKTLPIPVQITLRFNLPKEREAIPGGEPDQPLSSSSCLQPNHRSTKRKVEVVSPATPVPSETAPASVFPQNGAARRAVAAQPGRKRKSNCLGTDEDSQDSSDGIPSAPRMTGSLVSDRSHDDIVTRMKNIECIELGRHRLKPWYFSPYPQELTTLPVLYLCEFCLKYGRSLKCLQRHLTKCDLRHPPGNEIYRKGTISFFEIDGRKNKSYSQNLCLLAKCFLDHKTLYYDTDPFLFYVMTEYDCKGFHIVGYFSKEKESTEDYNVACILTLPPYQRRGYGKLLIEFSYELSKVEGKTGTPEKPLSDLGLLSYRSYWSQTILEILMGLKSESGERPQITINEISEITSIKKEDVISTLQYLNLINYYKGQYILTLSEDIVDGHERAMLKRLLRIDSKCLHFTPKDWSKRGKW

With O=C1/C(=C/c2cccc(Br)c2)CN(Cc2ccccc2)C/C1=C\c1cccc(Br)c1 [MC2884] the inhibition at 5 µM ([1]; 5 μM) was ~40%, the inhibition at 25 µM ([1]; 25 μM) was ~80% and the “tumor volume reduction versus untreated mice” value [2] was 90%. The IC50 [3] was 835 nM, the “cytotoxic effect on MePR2B” value [4] was “insensitive” and the “human CD45+ cells in the bone marrow reduced to” value [5] was 24%.
